System: A549 cell line
Experiment: MTT cell viability, A549 cell line
Assay type: cell-based, human
Settings: Homo sapiens, A549 cell line, 24 hours, MTT
Experimental: The above cell lines were plated in 96-well plates at a density of 1×10^4 cells/well for 16 to 20 hours. […] After drug treatment, the cell lines were washed with phosphate-buffered saline (hereinafter referred to PBS), and were replaced with fresh complete RPMI-1640 medium for 2 days. Thereafter, the medium was replaced and the cells were incubated with 0.5 mg/ml of 3-(4,5-dimethylthiazol-2-yl)-2,5-diphenyltetrazolium bromide reagent (hereinafter referred to MTT, Sigma Chemical Co., St. Louis, Mo.) in complete RPMI-1640 medium for 4 hours. The viable cells converted MTT to formazan that generates a blue-purple color when dissolved in dimethyl sulfoxide (hereinafter referred to DMSO). The intensity of formazan was measured at 565 nm using a plate reader (VERSAmax, Molecular Dynamics, Sunnyvale, Calif.). The relative percentage of cell viability was calculated by dividing the absorbance of treated cells by that of the control in each experiment.
After drug treatment, the cells were washed with PBS and replaced with fresh complete RPMI-1640 medium for 2 days. Thereafter, the medium was replaced and the cells were incubated with 0.5 mg/mL of MTT reagent (Sigma Chemical Co., St. Louis, Mo.) in complete RPMI-1640 medium for 4 hours. The intensity of formazan was measured at 565 nm using a plate reader (VERSAmax, Molecular Dynamics, Sunnyvale, Calif.). The relative percentage of cell viability was calculated by dividing the absorbance of treated cells by that of the control in each experiment.

CCCCCOC(=O)CCC(=O)N1CCN(CCCOc2cc3c(Nc4ccc(F)c(Cl)c4)ncnc3cc2OC)CC1 [Analogue-11, pentyl 4-(4-(3-(4-(3-chloro-4-fluorophenylamino)-7-methoxyquinazolin-6-yloxy)propyl)piperazin-1-yl)-4-oxobutanoate] was tested, and the viability at 10 µM was 87.1%, the viability at 20 µM was 81.2% and the viability at 40 µM was 63.6%. It also gave a viability at 60 µM of 30% and a viability at 80 µM of 18.2%.
CCCOC(=O)CCC(=O)N1CCN(CCCOc2cc3c(Nc4ccc(F)c(Cl)c4)ncnc3cc2OC)CC1 [Analogue-9, propyl 4-(4-(3-(4-(3-chloro-4-fluorophenylamino)-7-methoxyquinazolin-6-yloxy)propyl)piperazin-1-yl)-4-oxobutanoate] was tested, and the viability at 10 µM was 95.1%, the viability at 20 µM was 87% and the viability at 40 µM was 80.9%. It also gave a viability at 60 µM of 70.4% and a viability at 80 µM of 23.4%.
With CCCCCCCCCCCCCCCCCCOC(=O)CCC(=O)N1CCN(CCCOc2cc3c(Nc4ccc(F)c(Cl)c4)ncnc3cc2OC)CC1 [Analogue-24, octadecyl 4-(4-(3-(4-(3-chloro-4-fluorophenylamino)-7-methoxyquinazolin-6-yloxy)propyl)piperazin-1-yl)-4-oxobutanoate] the viability at 10 µM was 94.8%, the viability at 20 µM was 90.5% and the viability at 40 µM was 91%. It also gave a viability at 60 µM of 87.2% and a viability at 80 µM of 86.7%.
With CCCCCCCCCCCCCCCCCCCCOC(=O)CCC(=O)N1CCN(CCCOc2cc3c(Nc4ccc(F)c(Cl)c4)ncnc3cc2OC)CC1 [Analogue-26, icosyl 4-(4-(3-(4-(3-chloro-4-fluorophenylamino)-7-methoxyquinazolin-6-yloxy)propyl)piperazin-1-yl)-4-oxobutanoate] the viability at 10 µM was 94%, the viability at 20 µM was 90.8% and the viability at 40 µM was 87.1%. The viability at 60 µM was 86.9% and the viability at 80 µM was 85.2%.
COC(=O)CCCCC(=O)N1CCN(CCCOc2cc3c(Nc4ccc(F)c(Cl)c4)ncnc3cc2OC)CC1 [Analogue-4, methyl 6-(4-(3-(4-(3-chloro-4-fluorophenylamino)-7-methoxyquinazolin-6-yloxy)propyl)piperazin-1-yl)-6-oxohexanoate] was tested, and the viability at 10 µM was 94.6%, the viability at 20 µM was 90.4% and the viability at 40 µM was 84.3%. The viability at 60 µM was 83.3% and the viability at 80 µM was 79.4%.
Molecule CCCCCCCCCCCOC(=O)CCC(=O)N1CCN(CCCOc2cc3c(Nc4ccc(F)c(Cl)c4)ncnc3cc2OC)CC1 [Analogue-17, undecyl 4-(4-(3-(4-(3-chloro-4-fluorophenylamino)-7-methoxyquinazolin-6-yloxy)propyl)piperazin-1-yl)-4-oxobutanoate] has a viability at 10 µM of 93.4%, a viability at 20 µM of 85.2% and a viability at 40 µM of 12%. The viability at 60 µM was 3.9% and the viability at 80 µM was 2.8%.
In the case of COC(=O)CCCCCCC(=O)N1CCN(CCCOc2cc3c(Nc4ccc(F)c(Cl)c4)ncnc3cc2OC)CC1 [Analogue-6, methyl 8-(4-(3-(4-(3-chloro-4-fluorophenylamino)-7-methoxyquinazolin-6-yloxy)propyl)piperazin-1-yl)-8-oxooctanoate], the viability at 10 µM is reported as 92%, the viability at 20 µM is reported as 94.3% and the viability at 40 µM is reported as 90.7%. It also gave a viability at 60 µM of 88.5% and a viability at 80 µM of 88.9%.
In the case of CCCCCCCCCCCCCCOC(=O)CCC(=O)N1CCN(CCCOc2cc3c(Nc4ccc(F)c(Cl)c4)ncnc3cc2OC)CC1 [Analogue-20, tetradecyl 4-(4-(3-(4-(3-chloro-4-fluorophenylamino)-7-methoxyquinazolin-6-yloxy)propyl)piperazin-1-yl)-4-oxobutanoate], the viability at 10 µM is reported as 100%, the viability at 20 µM is reported as 92.3% and the viability at 40 µM is reported as 88.6%. The viability at 60 µM was 84.9% and the viability at 80 µM was 77.2%.
CCCCOC(=O)CCC(=O)N1CCN(CCCOc2cc3c(Nc4ccc(F)c(Cl)c4)ncnc3cc2OC)CC1 [Analogue-10, butyl 4-(4-(3-(4-(3-chloro-4-fluorophenylamino)-7-methoxyquinazolin-6-yloxy)propyl)piperazin-1-yl)-4-oxobutanoate] showed a viability at 10 µM of 94.4%, a viability at 20 µM of 86% and a viability at 40 µM of 79.1%. For the same molecule, the viability at 60 µM was 64.1% and the viability at 80 µM was 36.9%.
Molecule CCCCCCCCOC(=O)CCC(=O)N1CCN(CCCOc2cc3c(Nc4ccc(F)c(Cl)c4)ncnc3cc2OC)CC1 [Analogue-14, octyl 4-(4-(3-(4-(3-chloro-4-fluorophenylamino)-7-methoxyquinazolin-6-yloxy)propyl)piperazin-1-yl)-4-oxobutanoate] has a viability at 10 µM of 87.3%, a viability at 20 µM of 80% and a viability at 40 µM of 48.7%. The viability at 60 µM was 26% and the viability at 80 µM was 21.7%.
With COC(=O)CCCCCC(=O)N1CCN(CCCOc2cc3c(Nc4ccc(F)c(Cl)c4)ncnc3cc2OC)CC1 [Analogue-5, methyl 7-(4-(3-(4-(3-chloro-4-fluorophenylamino)-7-methoxyquinazolin-6-yloxy)propyl)piperazin-1-yl)-7-oxoheptanoate] the viability at 10 µM was 95.2%, the viability at 20 µM was 91.7% and the viability at 40 µM was 90.1%. The viability at 60 µM was 83.4% and the viability at 80 µM was 82.4%.
Molecule CCCCCCOC(=O)CCC(=O)N1CCN(CCCOc2cc3c(Nc4ccc(F)c(Cl)c4)ncnc3cc2OC)CC1 [Analogue-12, hexyl 4-(4-(3-(4-(3-chloro-4-fluorophenylamino)-7-methoxyquinazolin-6-yloxy)propyl)piperazin-1-yl)-4-oxobutanoate] has a viability at 10 µM of 89.3%, a viability at 20 µM of 85.1% and a viability at 40 µM of 74.2%. The viability at 60 µM was 63.6% and the viability at 80 µM was 42.9%.
CCCCCCCCCCCCCCCOC(=O)CCC(=O)N1CCN(CCCOc2cc3c(Nc4ccc(F)c(Cl)c4)ncnc3cc2OC)CC1 [Analogue-21, pentadecyl 4-(4-(3-(4-(3-chloro-4-fluorophenylamino)-7-methoxyquinazolin-6-yloxy)propyl)piperazin-1-yl)-4-oxobutanoate] was tested, and the viability at 10 µM was 92%, the viability at 20 µM was 91.2% and the viability at 40 µM was 85.5%. The viability at 60 µM was 81.6% and the viability at 80 µM was 81.1%.
CCCCCCCCCCCCCCCCCCCOC(=O)CCC(=O)N1CCN(CCCOc2cc3c(Nc4ccc(F)c(Cl)c4)ncnc3cc2OC)CC1 [Analogue-25, nonadecyl 4-(4-(3-(4-(3-chloro-4-fluorophenylamino)-7-methoxyquinazolin-6-yloxy)propyl)piperazin-1-yl)-4-oxobutanoate] showed a viability at 10 µM of 94.5%, a viability at 20 µM of 94.8% and a viability at 40 µM of 92.3%. For the same molecule, the viability at 60 µM was 89.3% and the viability at 80 µM was 88.4%.
In the case of CCCCCCCCCCCCCCCCCOC(=O)CCC(=O)N1CCN(CCCOc2cc3c(Nc4ccc(F)c(Cl)c4)ncnc3cc2OC)CC1 [Analogue-23, heptadecyl 4-(4-(3-(4-(3-chloro-4-fluorophenylamino)-7-methoxyquinazolin-6-yloxy)propyl)piperazin-1-yl)-4-oxobutanoate], the viability at 10 µM is reported as 95.7%, the viability at 20 µM is reported as 97.2% and the viability at 40 µM is reported as 85.2%. The viability at 60 µM was 84.1% and the viability at 80 µM was 83.2%.
In the case of CCOC(=O)CCC(=O)N1CCN(CCCOc2cc3c(Nc4ccc(F)c(Cl)c4)ncnc3cc2OC)CC1 [Analogue-8, ethyl 4-(4-(3-(4-(3-chloro-4-fluorophenylamino)-7-methoxyquinazolin-6-yloxy)propyl)piperazin-1-yl)-4-oxobutanoate], the viability at 10 µM is reported as 77.6%, the viability at 20 µM is reported as 70% and the viability at 40 µM is reported as 67.4%. It also gave a viability at 60 µM of 61.6% and a viability at 80 µM of 35.6%.
Work on CCCCCCCOC(=O)CCC(=O)N1CCN(CCCOc2cc3c(Nc4ccc(F)c(Cl)c4)ncnc3cc2OC)CC1 [Analogue-13, heptyl 4-(4-(3-(4-(3-chloro-4-fluorophenylamino)-7-methoxyquinazolin-6-yloxy)propyl)piperazin-1-yl)-4-oxobutanoate] yielded a viability at 10 µM of 89.1%, a viability at 20 µM of 79.9% and a viability at 40 µM of 59.1%. For the same molecule, the viability at 60 µM was 35.7% and the viability at 80 µM was 27.2%.
In the case of COC(=O)CCCCCCCC(=O)N1CCN(CCCOc2cc3c(Nc4ccc(F)c(Cl)c4)ncnc3cc2OC)CC1 [Analogue-7, methyl 9-(4-(3-(4-(3-chloro-4-fluorophenylamino)-7-methoxyquinazolin-6-yloxy)propyl)piperazin-1-yl)-9-oxononanoate], the viability at 10 µM is reported as 90.3%, the viability at 20 µM is reported as 89.7% and the viability at 40 µM is reported as 85.8%. The viability at 60 µM was 84.8% and the viability at 80 µM was 80.9%.
For CCCCCCCCCCCCCOC(=O)CCC(=O)N1CCN(CCCOc2cc3c(Nc4ccc(F)c(Cl)c4)ncnc3cc2OC)CC1 [Analogue-19, tridecyl 4-(4-(3-(4-(3-chloro-4-fluorophenylamino)-7-methoxyquinazolin-6-yloxy)propyl)piperazin-1-yl)-4-oxobutanoate], the viability at 10 µM was 93.7%, the viability at 20 µM was 93.8% and the viability at 40 µM was 71.1%. For the same molecule, the viability at 60 µM was 20.6% and the viability at 80 µM was 6.8%.
For CCCCCCCCCCCCCCCCOC(=O)CCC(=O)N1CCN(CCCOc2cc3c(Nc4ccc(F)c(Cl)c4)ncnc3cc2OC)CC1 [Analogue-22, hexadecyl 4-(4-(3-(4-(3-chloro-4-fluorophenylamino)-7-methoxyquinazolin-6-yloxy)propyl)piperazin-1-yl)-4-oxobutanoate], the viability at 10 µM was 97.7%, the viability at 20 µM was 91.7% and the viability at 40 µM was 82.6%. It also gave a viability at 60 µM of 80% and a viability at 80 µM of 74.3%.
